In ChEMBL document CHEMBL3507680, “University of Dundee, Gates Library screen for HepG2 cell viability” one finds cytotoxicity data, which are given here for 102 compounds.

The series can be described thus: Human HepG2 cell viability assay in 384 well format. In kind it is toxicity, cell-based. Also on record: dose 125 nL, time 70.5 hour; cytotoxicity at 70.5 h: concentration not given beside the values. The settings on record: HepG2 cells, read-out: Inhibition.
In the case of `NC(=O)C1CCN(C(=O)CCSCc2ccc(Cl)c(Cl)c2)CC1`, the cytotoxicity at 70.5 h is -7.23%.
Regarding `O=C(O)c1ccnc(SCC(=O)c2ccccc2)c1`, the cytotoxicity at 70.5 h was determined as 14.5%.
Then `Cn1cnc2nc3n(c2c1=O)CCC3`, with 13.6%; and `COC(=O)c1cnn(-c2cc(Oc3cccc(C)c3)ncn2)c1N`, with 4%.
To `O=S(=O)(c1cnccc1N1CCN(CCO)CC1)N1CCCCC1` belongs 27.8%; to `CCCN(CCC)c1nc(N)nc(-c2cc(Cl)ccc2OC)n1`, -2.85%; to `CN1CCN(c2ccncc2S(=O)(=O)N2CCCCC2)CC1`, 0.146%.
Then `O=c1ncn(-c2cccc(F)c2)c2ncccc12`, with -0.419%; and `Cc1ccccc1C(O)c1ccncc1` (configuration not stated), with -8.85%.
Take `COC(=O)Cn1c(=O)nc2n1C(=O)N(c1cccc(Cl)c1)C2`: the cytotoxicity at 70.5 h is -5.07%.
Then `CCOc1ccc(Oc2cc(N)ccn2)cc1`, with -4.03%; and `O=c1[nH]c2ccccc2c2c1CCO2`, with -2.59%; and `COc1ccc(Cl)cc1-c1nc(N)nc(N)n1`, with 26%.
Then `COc1ccccc1-n1c(O)cc(C)c(C#N)c1=O`, with -1.09%.
To `CNS(=O)(=O)c1cnccc1N1CCN(C(C)C)CC1` belongs 2.6%; to `CCC(=O)NS(=O)(=O)c1cccnc1Nc1cccc(Cl)c1Cl`, 31.6%.
With `Cn1ccnc1Sc1ccc(S(N)(=O)=O)cn1`, the cytotoxicity at 70.5 h is -5.03%.
Then `O=S(=O)(c1cnccc1N1CCN(CCO)CC1)N1CCOCC1`, with 11.8%.
With `Cn1cc(I)c(C(=O)NC2CCCC2)n1`, the cytotoxicity at 70.5 h amounted to 10.4%.
Then `CCC(CO)NCc1ccc(-c2ccccc2F)o1` (configuration not stated), with -6.8%.
`O=C(CSc1nnc2n1N=CN(c1ccccc1)C2)c1ccccc1`: the cytotoxicity at 70.5 h was -7.5%.
Turning to `CC(=O)CSc1nnc2n1N=CN(c1cccc(Cl)c1)C2`, the cytotoxicity at 70.5 h is -8.9%.
With `CCOC1Sc2nnc(C)n2N=C1c1ccc(F)cc1` (configuration not stated), the cytotoxicity at 70.5 h was -5.95%.
In the case of `CC(=O)c1c(O)n(C)c2ccccc12`, the cytotoxicity at 70.5 h was 25.3%.
Then `COc1cc(C)c2c(c1C)C[C@@H](C(C)C(=O)O)CC2` (some centres not stated), with -3.12%; and `CN(C)Cc1cn(-c2ccccc2C(=O)NCCC2CCCN2C)cn1` (configuration not stated), with 24.5%; and `COCCN1CCCC(c2nccnc2-c2cccc(Cl)c2)C1` (configuration not stated), with 21%.
Then `COc1ccccc1-c1cccc(C2CCCN(C3CCOCC3)C2)n1` (configuration not stated), with 22.7%; and `CO[C@@H]1CCC[C@@H](NC(=O)c2cccc(F)c2)[C@H]1O`, with -1.9%.
To `CNC(=O)c1ccc(C2CN(c3cc(C)nc(N)n3)CCO2)nc1` (configuration not stated) belongs 20%; to `COCCN1CCN(Cc2cnc(C3(C)CCCCO3)nc2)CC1` (configuration not stated), 0.727%.
On to `Cn1nccc1CN1CCOC(c2ccc(-c3cncnc3)cn2)C1` (configuration not stated), for which the cytotoxicity at 70.5 h was -6.28%.
For `Cn1nccc1-c1cncc(C2CCCN(S(C)(=O)=O)C2)n1` (configuration not stated), the cytotoxicity at 70.5 h was -7.56%.
To `Cn1nccc1-c1cccc(CC2CCN(S(C)(=O)=O)C2)n1` (configuration not stated) belongs -4.28%; to `COc1ccc(Cc2nnc(NC(=O)C3CC34CCC4)s2)cc1OC` (configuration not stated), 0.282%.
For `COc1nsc2nc(C3CCCN3C(C)=O)ccc12` (configuration not stated), the cytotoxicity at 70.5 h was -3.15%.
To `CC(=O)N[C@@H]1CN(C(=O)c2cccc(C)c2)C[C@H]1O` belongs -8.6%; to `Cc1nc(N(C)C)cc(C2(C)CCCNC2)n1` (configuration not stated), -2.1%.
Regarding `CC1(c2ncc(CN3CCN(c4ccccn4)CC3)cn2)CCCCO1` (configuration not stated), the cytotoxicity at 70.5 h was -1.83%.
Take `CN(C)Cc1cn(-c2ccccc2C(=O)NCC2CCCCN2C)cn1` (configuration not stated): the cytotoxicity at 70.5 h came out at 25.3%.
Then `CCC(=O)N1CCOC(c2cc(Nc3nncs3)cc(C)n2)C1` (configuration not stated), with -5.24%; and `CS(=O)(=O)N1CCCC(c2cccc(-c3ccccc3F)n2)C1` (configuration not stated), with -7.63%; and `O=C(c1cnco1)N1CCC(Cc2cnc3ccccc3c2)CC1`, with -1.49%.
Then `O=S(=O)(c1cn[nH]c1)N1CCC(O)(CN2CCC(F)(F)CC2)C1` (configuration not stated), with 1.83%; and `Cc1cccc(C)c1Nc1noc2c1CN(C(=O)c1ccn(C)n1)CC2`, with 46.4%.
With `Cc1nn(C)cc1CN1CCC(c2ncc(Cl)cc2S(C)(=O)=O)CC1`, the cytotoxicity at 70.5 h is -6.84%.
To `CC(C)c1cc(C(=O)N2CCN(c3ncc4c(n3)CCOC4)CC2)on1` belongs 14.5%.
`O=C(NCc1ccnc(C2CCCOC2)n1)c1cccs1` (configuration not stated): the cytotoxicity at 70.5 h was 14.1%.
Then `CN1CCCC(c2nccnc2-c2cccc(Cl)c2)C1` (configuration not stated), with -9.62%; and `CO[C@@H]1CCC[C@@H](NC(=O)C(C)(C)c2cccc(F)c2)[C@H]1O`, with -7.35%.
As for `CC(=O)Nc1cccc([C@H]2C[C@@H](NC(C)=O)CCO2)c1`, the cytotoxicity at 70.5 h worked out at 13.2%.
To `Cc1nn(C)cc1CN1CCCC1c1cccc(Nc2nccs2)n1` (configuration not stated) belongs 35.9%.
To `COc1cccc(F)c1CN1CCC(c2nccc(C)n2)C1` (configuration not stated) belongs -9.63%; to `Cc1cc(-c2ccnn2C)nc(C2CCCN(S(C)(=O)=O)C2)n1` (configuration not stated), -13.9%; to `Cn1cnc(CN2Cc3nccn3CC2c2ccccc2)c1` (configuration not stated), -7.94%.
Turning to `CCCN(CCO)S(=O)(=O)c1ccc2[nH]c(=O)[nH]c2c1`, the cytotoxicity at 70.5 h was 1.55%.
Then `CN(Cc1ncc(-c2ccccc2C(=O)O)s1)c1ncccn1`, with 31.6%.
Turning to `CC(=O)N1CC(c2ccnc(Nc3nccs3)n2)C1`, the cytotoxicity at 70.5 h is -12.9%.
Take `O=C(NCCc1cc(N2CCOCC2)nc(N2CCCC2)n1)C1CC1`: the cytotoxicity at 70.5 h was -5.52%.
For `COc1cc(CCC(=O)N2CCC(c3cc4ncc(C)nc4[nH]3)C2)on1` (configuration not stated), the cytotoxicity at 70.5 h amounted to 19.5%.
Then `O=C(NCCc1cc(N2CCOCC2)nc(NC2CC2)n1)C1CCCO1` (configuration not stated), with -6.3%.
Then `O=C(NCCc1cc(N2CCOCC2)nc(NC2CC2)n1)C1CC1`, with -14%.
For `Cc1nonc1CNC(=O)C(C)Oc1ccccc1F` (configuration not stated), the cytotoxicity at 70.5 h was -7.96%.
In the case of `CN(C)S(=O)(=O)N1CCOC(c2cccc(-c3cncnc3)n2)C1` (configuration not stated), the cytotoxicity at 70.5 h was -10.8%.
Then `CN1CCCCC1(C)C(=O)N1CCC(c2ccccn2)CC1` (configuration not stated), with 14.5%.
As to `O=C(O)c1ccccc1-c1ccc(CN2CC(c3ccncn3)C2)o1`, the cytotoxicity at 70.5 h is -5.44%.
Then `Cc1cncnc1C1CCN(C(=O)C2(C)CCCCN2C)CC1` (configuration not stated), with -4.92%; and `CCC(O)Cn1nc(-c2ccc(C(=O)O)cc2)cc1-c1ccc(F)cc1` (configuration not stated), with -5.44%; and `CC1(c2ncc(CN(CC(=O)O)Cc3ccccc3)cn2)CCCCO1` (configuration not stated), with -7.96%.
`O=c1[nH]c2ccc(S(=O)(=O)N(CCO)Cc3ccncc3)cc2[nH]1`: the cytotoxicity at 70.5 h was -4.4%.
`CN(C)c1cccc(C(=O)N2CCn3c(nnc3C3CC3)C2)c1`: the cytotoxicity at 70.5 h was 19.2%.
Then `Cc1cc(-c2cnc(N3CCSCC3)nc2C(C)C)on1`, with -0.852%; and `Cc1cc(-c2cnc(N3CCCC3)nc2C(C)C)on1`, with -7.72%.
Then `CC(=O)NCCc1cc2nc(-c3ccncc3)ccn2n1`, with -4.37%; and `CCc1cc(O)n2nc(C3CCN(C(=O)c4ccncc4)CC3)cc2n1`, with 20.6%; and `CN1CCN([C@@H]2CN(C(=O)CCOc3ccccc3)C[C@H]2O)CC1`, with 10.8%.
Take `Cn1ccc2cc(CC3COCCN(C(=O)c4ccccn4)C3)ccc21` (configuration not stated): the cytotoxicity at 70.5 h is -6.94%.
Then `Cc1cc(Oc2ccccc2)nc(C2CCN(CCO)CC2)n1`, with -6.09%.
To `Cc1nc2ccc(C(=O)N3CCn4c(nnc4C4CC4)C3)cc2nc1C` belongs -4.74%; to `CC1CCCCN1c1nc2c(c(=O)[nH]1)CCN(Cc1ccccc1F)C2` (configuration not stated), -5.68%; to `CCN(CC)C(=O)Cn1c(=O)n(Cc2ccco2)c2ncccc21`, -3.1%.
Then `Cc1ccsc1CN1CCc2c(nc(N3CCCCC3C)[nH]c2=O)C1` (configuration not stated), with -6.71%; and `CCN1CCN(c2ncc(-c3cc(C)no3)c(-c3ccco3)n2)CC1`, with -3.95%.
As to `COc1cnc(C2(O)CCN(C(=O)c3ccco3)CC2)c(OC)n1`, the cytotoxicity at 70.5 h is -9.83%.
Regarding `O=S(=O)(c1ccc(F)cc1)N1CCCC1c1cc[nH]n1` (configuration not stated), the cytotoxicity at 70.5 h is -7.22%.
On to `O=S(=O)(c1ccccc1)N1CCCC1c1cc[nH]n1` (configuration not stated), for which the cytotoxicity at 70.5 h is -8.7%.
To `Cc1ccc(C(=O)N2CC[C@H](Oc3cccnc3C)[C@@H](O)CC2)s1` belongs 4.2%.
For `CCn1cc(CN2CCC(c3[nH]ncc3S(C)(=O)=O)C2)cn1` (configuration not stated), the cytotoxicity at 70.5 h was determined as 0.805%.
Then `O=C(CCN1CCCC1)Nc1c2c(cc3c1CCC3)CCC2`, with -0.353%.
Take `O=C(c1cccnc1N1CCN(CCO)CC1)N1CCCC1`: the cytotoxicity at 70.5 h was -1.63%.
To `CCC(CO)NCc1ccc(-c2ccc(Br)cc2)o1` (configuration not stated) belongs 0.103%; to `CCC(CO)NCc1ccc(-c2ccc(F)c(Cl)c2)o1` (configuration not stated), 3.9%; to `CCC(CN1CCCC1)n1cncc1-c1cnn(-c2ccccc2)c1` (configuration not stated), -2.29%.
Then `Cc1cc(F)ccc1-c1ccccc1CC1CNCCNC1=O` (configuration not stated), with 5.41%; and `NC1CCc2nc(-c3ccncc3)nc(Nc3cccc(F)c3)c2C1` (configuration not stated), with 9.56%.
To `FC(F)(F)c1nc(C2CCNCC2)no1` belongs -2.97%; to `Cn1ccnc1C1(O)CCN(C(=O)CCc2ccccc2)CC1`, -5.37%; to `Cn1ccnc1C1(O)CCN(C(=O)Cc2ccccc2)CC1`, -6.34%.
Regarding `FC(F)CNc1cnc(C2CCNCC2)cn1`, the cytotoxicity at 70.5 h was -5.8%.
To `COc1ccc(CN(C)[C@@H]2COC[C@H]2c2ccc(F)cc2)cc1` belongs -10.1%; to `Cc1c(NC(=O)CN2CCN(C3CCCC3)C(=O)C2)cnn1C`, -2.64%; to `c1ccc(Sc2ccc3c(c2)OCO3)c(CNC2=NCCN2)c1`, -0.794%.
